Among the data in US20240245793A1, “PSD-95 INHIBITORS AND USES THEREOF” (priority 2021, published 2024) are Ki and half-life values, retold here.

Read-outs that look alike come from different tables or passages of the source. Starred links: 1 amine or outer side, 2 acyl side, 3 side chain; linkers in the order of their positions; H or OH if unused. Positions of bridges follow the written chain, without caps; N, C: chain ends. Residues, ends and D or L forms follow the SMILES beside them. Chains are numbered I, II in the order given. CO(CH2CH2O)5CH2CH2CO = O=C(CCOCCOCCOCCOCCOCCC(=O)[*:2])[*:1]

The term Ki denotes a dissociation constant, usually derived from enzyme kinetics or from competition with a known ligand. A higher Ki goes with weaker binding.

The target of one data set is PDZ1-2 of PSD-95 (Homo sapiens, UniProt P78352). Description: Fluorescence polarization (FP) competition assay, affinity to PDZ1-2 of PSD-95. Type of data set: binding. The conditions noted are these: mean ± SEM. The protocol: First, a saturation binding curve was obtained to determine KD values for the interaction between a fluorescent dimeric probe and PDZ1-2 of PSD-95. Increasing concentrations of PDZ1-2 (0.015-30 nM) were added to a constant concentration of the probe (0.5 nM). The fluorescence polarization (FP) of the sample was measured at excitation/emission wavelength of 635/670 nm and the generated FP values were fitted to a one site binding model using the software GraphPad Prism. […] The FP values were fitted to a one site competition (variable slope) model in GraphPad prism. The resulting IC50 values were converted to Ki values as described previously by Nikolovska-Coleska et al., Anal. Biochem., 2004, 332, 261).
PDZ1-2 of PSD-95, sequence (P78352 61-249 limits assumed): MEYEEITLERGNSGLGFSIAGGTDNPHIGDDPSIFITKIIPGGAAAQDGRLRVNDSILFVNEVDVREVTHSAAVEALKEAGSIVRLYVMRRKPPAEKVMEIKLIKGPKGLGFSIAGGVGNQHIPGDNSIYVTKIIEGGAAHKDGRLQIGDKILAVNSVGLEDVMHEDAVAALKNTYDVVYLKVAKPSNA

For the next data set, the target named is T1, plasmin (Homo sapiens, UniProt P00747).
T1 construct: Tissue plasminogen factor (tPA), which generates plasmin from plasminogen
T1 sequence (P00747 581-810 limits assumed, species assumed): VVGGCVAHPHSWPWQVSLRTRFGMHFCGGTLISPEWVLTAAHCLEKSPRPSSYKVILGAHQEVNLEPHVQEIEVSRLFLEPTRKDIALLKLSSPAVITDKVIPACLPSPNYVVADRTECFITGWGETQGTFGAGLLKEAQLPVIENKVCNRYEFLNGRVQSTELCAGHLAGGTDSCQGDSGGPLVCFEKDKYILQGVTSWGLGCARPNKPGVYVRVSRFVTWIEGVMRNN
T1 sequence (P00747 97-580 partner limits assumed, species assumed): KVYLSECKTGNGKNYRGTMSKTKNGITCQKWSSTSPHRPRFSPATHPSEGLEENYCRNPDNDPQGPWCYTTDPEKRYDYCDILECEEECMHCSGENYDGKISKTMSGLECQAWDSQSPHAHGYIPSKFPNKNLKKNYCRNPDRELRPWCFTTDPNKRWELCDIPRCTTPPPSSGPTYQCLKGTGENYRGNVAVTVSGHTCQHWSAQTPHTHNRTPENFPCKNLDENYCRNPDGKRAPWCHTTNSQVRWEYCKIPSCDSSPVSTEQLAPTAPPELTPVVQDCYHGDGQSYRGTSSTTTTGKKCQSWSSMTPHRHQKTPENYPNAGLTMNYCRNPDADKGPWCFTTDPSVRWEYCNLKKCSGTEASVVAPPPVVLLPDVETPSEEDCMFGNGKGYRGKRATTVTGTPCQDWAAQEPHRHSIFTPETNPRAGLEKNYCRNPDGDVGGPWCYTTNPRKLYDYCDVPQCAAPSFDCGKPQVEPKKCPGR
Description: In vitro plasmin stability assay. It counts as in vitro ADME. The conditions noted are these: isolated enzyme plasmin. As for the experimental part:
At selected time points during the incubation, the ligands were extracted from 80 μL of assay matrix by treatment with 80 μL of 50% acetonitrile (ACN). The samples were filtered and analysed by UPLC to determine the amount of ligand remaining. LC-MS analysis was performed to confirm ligand integrity and identify cleavage sites.

The mark [1] stands for this setting: OPEG4 dimers without CPP, n ≥ 3 (Table 4, FIG. 1).

`CC(C)C[C@H](NC(=O)[C@@H](NC(=O)[C@H](CCC(=O)O)NC(=O)[C@H](CCCCN)NC(=O)CCOCCOCCOCCOCCOCCC(=O)N[C@@H](CCCCN)C(=O)N[C@@H](CCC(=O)O)C(=O)N[C@H](C(=O)N[C@@H](CC(C)C)C(=O)N[C@H](C(=O)O)C(C)C)[C@@H](C)O)[C@@H](C)O)C(=O)N[C@H](C(=O)O)C(C)C` [Compound 2, OPEG4-(KETLV)2] displayed a Ki at PDZ1-2 of PSD-95 (setting [1]) of 11.1 ± 0.3 nM.

In the case of `CC(C)[C@H](NC(=O)[C@@H](NC(=O)[C@@H](NC(=O)[C@H](CCC(=O)O)NC(=O)[C@H](CCCCN)NC(=O)CCOCCOCCOCCOCCOCCC(=O)N[C@@H](CCCCN)C(=O)N[C@@H](CCC(=O)O)C(=O)N[C@H](C(=O)N[C@H](C(=O)N[C@H](C(=O)O)C(C)C)[C@@H](C)O)[C@@H](C)O)[C@@H](C)O)[C@@H](C)O)C(=O)O` [Compound 3, OPEG4-(KETTV)2], the Ki on PDZ1-2 of PSD-95 (setting [1]) amounted to 14.4 ± 0.4 nM.

In turn, `CC(C)[C@H](NC(=O)[C@@H](NC(=O)[C@@H](NC(=O)[C@H](CCC(=O)O)NC(=O)[C@H](CCCCN)NC(=O)CCOCCOCCOCCOCCOCCC(=O)N[C@@H](CCCCN)C(=O)N[C@@H](CCC(=O)O)C(=O)N[C@H](C(=O)N[C@H](C(=O)N[C@H](C(=O)O)C(C)C)C(C)C)[C@@H](C)O)[C@@H](C)O)C(C)C)C(=O)O` [Compound 4, OPEG4-(KETVV)2] (I: KETVV-OH / II: KETVV-OH; linker I:N-II:N via CO(CH2CH2O)5CH2CH2CO; C-terminus assumed) displayed a Ki at PDZ1-2 of PSD-95 (setting [1]) of 15.8 ± 1.2 nM.

Take `CC(=O)N[C@@H](Cc1ccc(O)cc1)C(=O)NCC(=O)N[C@@H](CCCNC(=N)N)C(=O)N[C@@H](CCCCN)C(=O)N[C@@H](CCCCN)C(=O)N[C@@H](CCCNC(=N)N)C(=O)N[C@@H](CCCNC(=N)N)C(=O)N[C@@H](CCC(N)=O)C(=O)N[C@@H](CCCNC(=N)N)C(=O)N[C@@H](CCCNC(=N)N)C(=O)N[C@@H](CCCNC(=N)N)C(=O)N(CCOCCOCCC(=O)N[C@@H](CCCCN)C(=O)N[C@@H](CCC(=O)O)C(=O)N[C@H](C(=O)N[C@@H](CC(C)C)C(=O)N[C@H](C(=O)O)C(C)C)[C@@H](C)O)CCOCCOCCC(=O)N[C@@H](CCCCN)C(=O)N[C@@H](CCC(=O)O)C(=O)N[C@H](C(=O)N[C@@H](CC(C)C)C(=O)N[C@H](C(=O)O)C(C)C)[C@@H](C)O` [Compound 11]: the Ki at PDZ1-2 of PSD-95 (dimeric ligands fused to L-TAT and L-Arg9, n ≥ 3 (Table 5, FIG. 2)) stood at 5.4 ± 0.9 nM. The half-life on plasmin (read-out: T1/2) amounted to 5.77 ± 1.75 h.

For the compound `CC[C@H](C)[C@H](NC(=O)CCOCCOCCN(CCOCCOCCC(=O)N[C@H](C(=O)N[C@@H](CCC(=O)O)C(=O)N[C@H](C(=O)N[C@@H](CC(=O)O)C(=O)N[C@H](C(=O)O)C(C)C)[C@@H](C)O)[C@@H](C)CC)C(=O)[C@H](CCCCN)NC(=O)[C@H](CO)NC(=O)[C@H](Cc1c[nH]cn1)NC(=O)[C@H](C)NC(=O)[C@H](Cc1c[nH]cn1)NC(=O)[C@H](C)NC(=O)[C@H](CCC(N)=O)NC(=O)[C@H](CCCCN)NC(=O)[C@H](CCCNC(=N)N)NC(=O)[C@@H](NC(=O)[C@H](CCCNC(=N)N)NC(=O)[C@H](CCCNC(=N)N)NC(=O)[C@H](CCCNC(=N)N)NC(=O)[C@H](CC(C)C)NC(=O)[C@@H](NC(=O)[C@@H](NC(=O)[C@H](CC(C)C)NC(=O)[C@H](CC(C)C)NC(C)=O)[C@@H](C)CC)[C@@H](C)CC)[C@@H](C)CC)C(=O)N[C@@H](CCC(=O)O)C(=O)N[C@H](C(=O)N[C@@H](CC(=O)O)C(=O)N[C@H](C(=O)O)C(C)C)[C@@H](C)O` [Compound 52], the half-life at 100 μM at plasmin worked out at 0.817 ± 0.15 h.

Regarding `CC[C@H](C)[C@H](NC(=O)CCOCCOCCN(CCOCCOCCC(=O)N[C@H](C(=O)N[C@@H](CCC(=O)O)C(=O)N[C@H](C(=O)N[C@@H](CC(=O)O)C(=O)N[C@H](C(=O)O)C(C)C)[C@@H](C)O)[C@@H](C)CC)C(=O)[C@H](C)NC(=O)[C@H](CC(C)C)NC(=O)[C@H](CCCCN)NC(=O)[C@H](CC(C)C)NC(=O)[C@H](C)NC(=O)[C@H](C)NC(=O)[C@H](CCCCN)NC(=O)[C@H](CC(C)C)NC(=O)[C@H](C)NC(=O)[C@H](CCCCN)NC(=O)[C@H](CC(C)C)NC(=O)[C@H](C)NC(=O)[C@H](CC(C)C)NC(=O)[C@H](CCCCN)NC(=O)[C@H](CC(C)C)NC(=O)[C@H](C)NC(=O)[C@H](CC(C)C)NC(=O)[C@H](CCCCN)NC(C)=O)C(=O)N[C@@H](CCC(=O)O)C(=O)N[C@H](C(=O)N[C@@H](CC(=O)O)C(=O)N[C@H](C(=O)O)C(C)C)[C@@H](C)O` [Compound 54], at plasmin, the half-life at 100 μM was 0.217 ± 0.0667 h.

On to `CC[C@H](C)[C@H](NC(=O)CCOCCOCCN(CCOCCOCCC(=O)N[C@H](C(=O)N[C@@H](CCC(=O)O)C(=O)N[C@H](C(=O)N[C@@H](CC(=O)O)C(=O)N[C@H](C(=O)O)C(C)C)[C@@H](C)O)[C@@H](C)CC)C(=O)[C@H](Cc1ccccc1)NC(=O)[C@H](CCC(N)=O)NC(=O)CNC(=O)[C@H](CCCNC(=N)N)NC(=O)[C@H](CC(C)C)NC(=O)[C@H](CC(C)C)NC(=O)[C@H](CCCNC(=N)N)NC(=O)[C@H](CC(C)C)NC(=O)[C@H](Cc1ccc(O)cc1)NC(=O)[C@@H](NC(=O)[C@H](CC(C)C)NC(=O)[C@@H]1CCCN1C(C)=O)[C@@H](C)CC)C(=O)N[C@@H](CCC(=O)O)C(=O)N[C@H](C(=O)N[C@@H](CC(=O)O)C(=O)N[C@H](C(=O)O)C(C)C)[C@@H](C)O` [Compound 56], for which the half-life at 100 μM at plasmin came out at 15.2 h.

In turn, `CC[C@@H](C)[C@@H](NC(=O)[C@@H](CC(C)C)NC(=O)[C@H]1CCCN1C(C)=O)C(=O)N[C@H](Cc1ccc(O)cc1)C(=O)N[C@H](CC(C)C)C(=O)N[C@H](CCCNC(=N)N)C(=O)N[C@H](CC(C)C)C(=O)N[C@H](CC(C)C)C(=O)N[C@H](CCCNC(=N)N)C(=O)NCC(=O)N[C@H](CCC(N)=O)C(=O)N[C@H](Cc1ccccc1)C(=O)N(CCOCCOCCC(=O)N[C@H](C(=O)N[C@@H](CCC(=O)O)C(=O)N[C@H](C(=O)N[C@@H](CC(=O)O)C(=O)N[C@H](C(=O)O)C(C)C)[C@@H](C)O)[C@@H](C)CC)CCOCCOCCC(=O)N[C@H](C(=O)N[C@@H](CCC(=O)O)C(=O)N[C@H](C(=O)N[C@@H](CC(=O)O)C(=O)N[C@H](C(=O)O)C(C)C)[C@@H](C)O)[C@@H](C)CC` [Compound 58] showed a half-life at 100 μM at plasmin of 24 h.

In the case of `CC[C@H](C)[C@H](NC(=O)CCOCCOCCN(CCOCCOCCC(=O)N[C@H](C(=O)N[C@@H](CCC(=O)O)C(=O)N[C@H](C(=O)N[C@@H](CC(=O)O)C(=O)N[C@H](C(=O)O)C(C)C)[C@@H](C)O)[C@@H](C)CC)C(=O)[C@@H]1CC(=O)NC[C@H](NC(C)=O)C(=O)N[C@@H](CCCCN)C(=O)N[C@@H](C)C(=O)N2CCC[C@H]2C(=O)N[C@@H](CCC(=O)O)C(=O)N[C@@H]([C@@H](C)O)C(=O)N[C@@H](C)C(=O)N[C@@H](CC(C)C)C(=O)N1)C(=O)N[C@@H](CCC(=O)O)C(=O)N[C@H](C(=O)N[C@@H](CC(=O)O)C(=O)N[C@H](C(=O)O)C(C)C)[C@@H](C)O` [Compound 60], the half-life at 100 μM on plasmin (read-out: T1/2) is 24 h.

Take `CC[C@H](C)[C@H](NC(=O)CCOCCOCCN(CCOCCOCCC(=O)N[C@H](C(=O)N[C@@H](CCC(=O)O)C(=O)N[C@H](C(=O)N[C@@H](CC(=O)O)C(=O)N[C@H](C(=O)O)C(C)C)[C@@H](C)O)[C@@H](C)CC)C(=O)[C@H](CCCCN)NC(=O)CCCNC(=O)CC[C@@H]1NC(=O)[C@@H](CCCNC(=N)N)NC(=O)[C@H](CCCNC(=N)N)NC(=O)[C@@H](CCCNC(=N)N)NC(=O)[C@H](CCCNC(=N)N)NC(=O)[C@H](Cc2ccc3ccccc3c2)NC(=O)[C@@H](Cc2ccccc2)NC(=O)[C@H](Cc2ccccc2)NC1=O)C(=O)N[C@@H](CCC(=O)O)C(=O)N[C@H](C(=O)N[C@@H](CC(=O)O)C(=O)N[C@H](C(=O)O)C(C)C)[C@@H](C)O` [Compound 62]: the half-life at 100 μM at plasmin worked out at 24 h.
